# Earlier results in EP1219295A1, “Controlled release formulation of valproate” (Abbott Laboratories, priority 2000, dated 2002).
# Where two headings read alike, the source gives them in different places.
# Key:
# [1] = in vivo
Compound,patients affected by GI irritation [1],half life (in adults),half life (in children)
CCCC(CCC)C(=O)O [valproate],up to one third,–,–
"CCCC(CCC)C(=O)O [valproic acid, 2-Propylpentanoic acid]",–,six and seventeen,four and fourteen
